The values that follow come from patent publication US8673320B2, “Metal-citrate transporter antigen from Streptomyces coelicolor and uses thereof” (Syracuse University, priority 2008, dated 2014).

Where a name gives a salt, the structure may show the parent alone.

Test [1] concerns Streptomyces coelicolor A3(2). As to the kind of experiment: 1,5-[^14C]-citrate transport assay in whole cells, Streptomyces coelicolor A3(2). The test is classed as cell-based. To be noted: for uptake of citrate or metal-citrate species above background: S. coelicolor grown with glucose (SMMG), for Fe^3+ SMMG supplemented with 36 μM FeCl3.6H2O; for uptake of citrate in the presence of metal ion: S. coelicolor grown in broth with citrate as sole carbon source (SMMC), PIPES pH 6.5, 4.4 μM citrate. How it is done:
S. coelicolor A3(2) cells were grown from stocks for 48-72 hours at 28° C. and 300 rpm. Cells were collected via centrifugation and washed twice with 50 mM chelexed piperazine-N,N′-bis(2-ethanesulfonic acid) (PIPES) buffer, pH 6.5. Cells were resuspended to an OD of 0.2 after the second wash. 100 μl of cells were added to 2.2 ml microcentrifuge tubes. 5 μl of metal as the chloride salt was then added from the following stock solution concentrations (220 mM CaCl2 or BaCl2, 22 mM MgCl2, NiCl2, 22 mM CoCl2, PbCl2, MnCl2 and 1.65 mM FeCl3). Different molar amounts of metals were used to maximize metal-citrate complex formation as per MINTEQ calculations (A12) and successfully used in a previous literature report (A19). Cells were then incubated at 30° C. for 8 minutes with shaking. At 8 minutes, 5 μl of 96.8 μM 1,5-[^14C]-citrate was added to each sample to provide a final concentration of 4.4 μM. Uptake was stopped by addition of 2 mL of 0.1 M LiCl. This was followed by immediate filtration through cellulose nitrate filters ([…], 2.1 cm diameter). The filters were washed with 2×2 mL of 0.1 M LiCl solution and radioactivity was recorded using a liquid scintillation counter. In every experimental run, background radioactivity was gauged by adding 2 mls of LiCl prior to addition of the radiolabelled citrate. As before, cells were then immediately filtered, washed with 2×2 mL of 0.1 M LiCl and radioactivity monitored. This served as the background and was subtracted from final data. Experiments were performed using at least three independent cultures and each time point was collected in triplicate per run. 4×100 μl of cells from each run were filtered directly through pre-weighed cellulose nitrate filter paper and dried to determine average cell sample weight. Transport assays were also ‘stopped’ using 10 mM HEPES-glucose buffer instead of 0.1 M LiCl to check for the occurrence of ‘leaking’, which has been postulated to occur with the use of LiCl (A22). No noticeable difference was observed across multiple cultures tested in either S. coelicolor (or E. coli as described below).
It is important to note that pre-incubating the ‘free’ metal prior to addition of ^14[C]-citrate or synthesizing the complex and then adding it to the cells made no difference to experimental results consistent with the work reported by Lolkema et al. (A19), except in the case of Fe^3+. Transport assays with Fe^3+ were performed at 25.0° C. with the metal precomplexed to [^14C]-citrate to prevent Fe^3+ precipitation in the aqueous buffer. The temperature and pH change were accounted for in MINTEQ calculations. All experiments using precomplexed mixtures were filtered using a 0.45 μm syringe filter (Fisher Scientific) prior to addition to cells.

In a further test the test system is S. coelicolor. As to the kind of experiment: Growth of S. coelicolor in CHELEX-washed, metal-free SMMC broth. It is filed as cell-based, Streptomyces coelicolor. As to the method: Streptomyces coelicolor A3(2) was obtained from a third party supplier and the American Type culture collection (BAA-471). S. coelicolor A3(2) stocks were grown in Yeast-Extract Malt Extract broth (YEME) at 28° C. in 125 mL baffled flasks to an Optical Density at 600 nm (OD600) of ˜2.0. 20% glycerol was added to the cells in a 1:1 volume ratio and the cells were chilled on ice for 1 hour and placed at −80° C. still in the ice container. After 24 hours the cells were taken out of the ice container and at −80° C. Streptomyces coelicolor was grown in Streptomyces Minimal Medium (SMM) broth for functional characterization studies. SMM was prepared as previously reported (A17) with the following modifications; L-asparagine was replaced with ammonium sulfate (1 g L^−1), agar was eliminated and either [56 mM] sodium citrate (SMMC) or [56 mM] glucose (SMMG) was added as the sole carbon source. 50 ml of SMMC or SMMG broths were inoculated with 1 ml of S. coelicolor A3(2) stock solutions and grown for 48-72 hrs at 28° C. and 300 rpm shaking in 125 mL baffled flasks.
In addition, growth of S. coelicolor was arrested in CHELEX-washed, metal-free SMMC broth. This arrest could be prevented by addition of Fe^3+ (or Ca^2+) but not Mg^2+ or Ni^2+ to SMMC.

Another test relates to Sccit. As to the kind of experiment: 1,5-[^14C]-citrate transport assay in E. coli expressing Sccit. To be noted: E. coli AA93 Δfec or JW4251-2 ΔfecA, induced with 0.5 mM IPTG for 1 hour. It is filed as cell-based, Streptomyces coelicolor. As to the method: E. coli AA93 and JW4251-2 cultures were grown in LB as described above. Protein expression for transport assays was induced at 30.0° C. with 0.5 mM Isopropyl β-D-thiogalacto-pyranoside (IPTG) at an OD600 of 1.0 for 1 hour. Subsequent flux assays followed the protocol described above for S. coelicolor and previous literature protocol (A19) with the following adaptations: cells were resuspended with 10 mL of PIPES buffer at 6.5 for all metals, and the transport assay was conducted at 37.0° C. except for iron (25° C.). Non-induced controls were included in all runs. Concentration of metal ion and citrate were chosen to maximize the formation of the desired metal-citrate complex (see Table 2). Experiments were performed using at least three independent cultures and each time point was collected in triplicate per run. Incubation of the metal ion (except for Fe^3+ as described above) and pre-complexation of the metal with [^14C]-citrate prior to cell addition yielded similar results. Experiments were also conducted, specifically for Fe^3+-citrate uptake, involving reducing the IPTG induction temperature in E. coli down to 4° C. (see FIG. 5). This was to observe actual uptake of the iron complex.

As to `[Ba+2]` [Ba^2+], the “uptake of citrate or metal-citrate species above background” value in test [1] is on record as “No uptake”.

For `[Ca+2]` [Ca^2+], the “uptake of citrate or metal-citrate species above background” value in test [1] was “No uptake”. The “prevention of growth arrest by addition of metal ion” value (shortened to “prevention of growth arrest”) with S. coelicolor is reported as “prevented”. In the test on Sccit, the “uptake of 1,5-[^14C]-citrate with metal ion cofactor” value (“uptake of 1,5-[^14C]-citrate” for short) was “uptake of 1,5-[^14C]-citrate observed”.

As for `[Co+2]` [Co^2+], in test [1], the “uptake of citrate in the presence of metal ion” value (“uptake of citrate … of metal ion” for short) is reported as “no greater than the rate of uptake without metal ions” and the “uptake of citrate or metal-citrate species above background” value is given as “No uptake”. The “uptake of 1,5-[^14C]-citrate” value with Sccit was “did not result in citrate uptake”.

Take `O=C(O)CN(CCOCCOCCN(CC(=O)O)CC(=O)O)CC(=O)O` [EGTA, ethylene glycol tetraacetic acid, reference compound]: the “EGTA concentration at which citrate uptake decreased to zero” value in test [1] (in the presence of 10 mM Ca^2+) is recorded as “over 1 mM”.

As for `O=C([O-])CC(O)(CC(=O)[O-])C(=O)[O-].[Fe+3]` [Fe^3+-citrate], in test [1] (S. coelicolor grown in SMM containing glucose, no iron in broth), the “Fe^3+-citrate uptake, iron absent from growth broth” value is “greatly reduced”.

For `[Fe+3]` [Fe^3+], in test [1], the “uptake of citrate … of metal ion” value was “uptake was dependent on the presence” and the “uptake of citrate or metal-citrate species above background” value is given as “significant uptake”. In addition, the “prevention of growth arrest” value with S. coelicolor was “prevented”. Besides, the “uptake of 1,5-[^14C]-citrate” value in the test with Sccit is “uptake of 1,5-[^14C]-citrate observed”.

Regarding `[Mg+2]` [Mg^2+], in test [1], the “uptake of citrate … of metal ion” value was “no greater than the rate of uptake without metal ions” and the “uptake of citrate or metal-citrate species above background” value is on record as “No uptake”. The “prevention of growth arrest” value in the test on S. coelicolor was “not”. Further, the “uptake of 1,5-[^14C]-citrate” value with Sccit is reported as “did not result in citrate uptake”.

Take `[Ni+2]` [Ni^2+]: in test [1], the “uptake of citrate … of metal ion” value is on record as “no greater than the rate of uptake without metal ions” and the “uptake of citrate or metal-citrate species above background” value is on record as “No uptake”. Moreover, the “prevention of growth arrest” value in the test with S. coelicolor is recorded as “not”. In addition, in the test with Sccit, the “uptake of 1,5-[^14C]-citrate” value is “did not result in citrate uptake”.

Turning to `[Pb+2]` [Pb^2+], the “uptake of citrate or metal-citrate species above background” value in test [1] is on record as “No uptake”. For the same molecule, the “uptake of 1,5-[^14C]-citrate” value with Sccit was “uptake of 1,5-[^14C]-citrate observed”.

As for `O=C(O)CC(O)(CC(=O)O)C(=O)O` [free citrate], in test [1], the “uptake of citrate … of metal ion” value is listed as “no uptake” and the “uptake of citrate or metal-citrate species above background” value is “No uptake”. Further, the “uptake of 1,5-[^14C]-citrate” value with Sccit is given as “not transported”.
